According to patent US5886165A, “Mixed backbone antisense oligonucleotides containing 2'-5'-ribonucleotide- and 3'-5'-deoxyribonucleotides segments” (Hybridon, Inc., priority 1996, dated 1999):
[25] = 2'-5' internucleotide linkage (phosphodiester)

Legend:
[1] = system: normal human serum complement lysis of sheep red blood cells; experiment: CH50 hemolytic complement assay; conditions: for 50% Inhibition of Complement Lysis: compared to saline control
Description: A CH50 assay for complement lysis of sheep red blood cells (Colorado Serum Co., Denver, Col.) sensitized with anti-sheep red cell antibody (hemolysin; Diamedix, Miami, Fla.) as previously described (Mayer, In Experimental Immunochemistry, Kabat and Mayer eds., C. C. Thomas, Springfield, pp. 125-131 (1961)), was modified to test 1-200 dilutions of normal human serum interpreted. Hemoglobin release into cell-free supernates was measured spectrophotometrically at 541 nm. Data were calculated as 50% inhibition of lysis compared to saline control.

[2] = system: citrated normal human donor plasma; experiment: Clotting assay, activated partial thromboplastin time (aPTT); conditions: compared to saline control; for 50% Prolongation of Clotting (aPTT): human plasma; for effect in coagulation assay (in words): up to 100 μg/ml dose
Description: The activated partial thromboplastin time (aPTT) was performed with citrated normal human donor plasma in duplicate on an Electra 1000C (Medical Laboratory Automation, Mount Vernon, N.Y.) according to recommended procedures using Actin FSL (Baxter Dade, Miami, Fla.) and 2.5 mM calcium to initiate clot formation, which was measured photometrically. Normal plasma aPTT values ranged from 27 to 39 sec. Data were calculated as 50% of prolongation as compared to the saline control.

[3] = system: DNA target strand SEQ ID NO 10 (25 base sequence from the initiation codon region of the HIV-1 gag mRNA); experiment: Thermal melting study, duplex with DNA target strand; type: binding; conditions: for Tm DNA: duplex with DNA SEQ ID NO 10, 10 mM disodium hydrogen phosphate pH 7.5, 100 mM NaCl, 2.0 μM total strands; for Tm lower than duplex of control phosphorothioate oligonucleotide SEQ ID NO 8, DNA target: vs SEQ ID NO 8, DNA SEQ ID NO 10
Description: (§1) Thermal denaturation studies were carried out by mixing MBOs with the DNA or RNA target strands in equimolar ratios in 10 mM disodium hydrogen phosphate, pH 7.5±0.1, 100 mM sodium chloride buffer, heated to 95° C. for 10 min, and allowed to come to room temperature slowly before being stored at 4° C. overnight. The final total concentration of the oligonucleotide strands was 2.0 μM. Spectrophotometric measurements were performed at 260 nm using 1 cm path length quartz cuvettes at a heating rate of 0.5° C./min on a Perkin-Elmer (Norwalk, Conn.) Lambda 2 Specotrometer attached to a thermal controller and a personal computer. Melting temperatures (Tm) taken as the temperature of half-dissociation and were obtained from first derivative plots. Precision in Tm values estimated from variance in two or three repeated experiments was ±0.5° C.

[4] = system: RNA target strand SEQ ID NO 9 (25 base sequence from the initiation codon region of the HIV-1 gag mRNA); experiment: Thermal melting study, duplex with RNA target strand; type: binding; conditions: for Tm RNA: duplex with RNA SEQ ID NO 9, 10 mM disodium hydrogen phosphate pH 7.5, 100 mM NaCl, 2.0 μM total strands; for Tm lower than duplex of control phosphorothioate oligonucleotide SEQ ID NO 8, RNA target: vs SEQ ID NO 8, RNA SEQ ID NO 9
Description: as §1

Spleen cells (CD1 mouse) = experiment: In vitro cell proliferation assay ([3H]thymidine); type: cell-based; conditions: at 10 μg/ml, 48 hrs
Description: Cell proliferation assays were carried out as described earlier (Zhao et al., Biochem. Pharmacol 51, 173-182 (1996)). Spleen cells (4-5 week old male CD1 mouse, 20-22 gm, Charles River, Wilmington, Mass.) suspensions were prepared and plated in 96-well dishes at a density of 10^6 cells/ml in a final volume of 100 μl. The cells were incubated at 37° C. after adding 10 μl of oligonucleotides. After 44 hrs incubation, 1 μCi [3H]thymidine (Amersham, Arlington Heights, Ill.) was added and the cells were pulse-labeled for another 4 hrs. The cells were harvested by an automatic cell harvester and the filters were counted by a scintillation counter. All experiments were carried out in triplicate.

HIV-1 = experiment: Inhibition of HIV-1 replication in cell culture (MT-4 cells, MTT); type: cell-based; conditions: for IC50: 6 days
Description: Oligonucleotides according to the invention were studied for their ability to inhibit HIV-1. HIV-1 inhibition assay was carried out as described previously. Kandimalla et al., Nucleic Acids Res., supra). Briefly, serial dilutions of antisense oligonucleotides were prepared in 50 μl volumes of complete medium (RAMI-1640, 10% fetal bovine serum, 2 mM L-glutamine, 100 U/ml penicillin, […] streptomycin) in triplicate in 96-well plates. Virus diluted to contain a 90% CP dose of virus in 50 μl was added, followed by 100 μl 4×10^5 /ml MT-4 cells in complete medium. The plates were incubated at 37° C. in 5% CO2 for 6 days. MTT dye was added and quantified at A540 and A690 as described. The percent inhibition was calculated by the formula (experimental--virus control)/(medium control--virus control)×100.

[5] = Stability in DMEM cell culture medium containing 10% fetal calf serum; type: in vitro ADME; conditions: DMEM with 10% non-heat-inactivated fetal calf serum, 37° C.
Description: Oligonucleotides were labeled at the 5'-end with ^32 P using γ-^32 P-ATP (Amersham) and T4 polynucleotide kinase (Promega). Sambrook et al, Molecular Cloning, supra. Stability of the oligonucleotides in cell culture medium containing 10% fetal calf serum was tested by incubating a small amount of labeled oligonucleotide together with 100 ng of cold oligonucleotide in DMEM cell culture medium (Gibco/BRL, Grand Island, N.Y.) containing 10% non-heat-inactivated fetal calf serum (Gibco/BRL) at 37° C. in a final volume of 40 μl, and aliquots were removed at different times.

[6] = system: snake venom phosphodiesterase; experiment: Snake venom phosphodiesterase assay; type: in vitro ADME; conditions: 0.01 U, 21° C.; compared with SEQ ID NO 7
Description: (§2) For snake venom phosphodiesterase assay, labeled oligonucleotide with cold oligonucleotide in a buffer (10 mM Tris, pH 8.0, 100 mM sodium chloride, and 10 mM magnesium chloride) was incubated with 0.01 U of snake venom phosphodiesterase (Boehringer-Mannheim, Indianapolis, Ind.) at 21° C. (final volume 40 μl). Aliquots were removed at different time intervals for electrophoretic gel analysis. For S1 nuclease assay, reactions were carried out as above but in […] sodium acetate, pH 5.0, 10 mM zinc acetate buffer and with 1.4 U of S1 nuclease (Gibco/BRL) incubated at 37° C. in a final volume of 50 μl. Aliquots were removed at different time intervals for electrophoretic gel analysis. Nuclease reactions were stopped by adding 5 μl of formamide gel loading buffer to each sample and heating at 90° C. for 5 min. All the samples were then run by 20% PAGE (7M urea) and visualized by autoradiography.

S1 nuclease = target: T1, S1 nuclease (Aspergillus oryzae, UniProt P24021); experiment: S1 nuclease assay; type: in vitro ADME; conditions: 1.4 U, 37° C., pH 5.0
T1 construct: purchased Gibco/BRL
T1 sequence (P24021 21-287): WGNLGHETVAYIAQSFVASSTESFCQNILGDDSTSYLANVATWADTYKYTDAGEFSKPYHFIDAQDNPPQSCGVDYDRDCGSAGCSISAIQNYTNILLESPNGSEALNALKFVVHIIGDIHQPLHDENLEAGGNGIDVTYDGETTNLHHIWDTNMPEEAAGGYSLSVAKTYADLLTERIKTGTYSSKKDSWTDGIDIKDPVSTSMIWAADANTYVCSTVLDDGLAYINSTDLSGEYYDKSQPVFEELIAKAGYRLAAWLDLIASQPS
Description: as §2

Substance	50% Inhibition of Complement Lysis [1] [µg/mL]	50% Prolongation of Clotting (aPTT) [2]	Tm DNA [3] [°C]	Tm RNA [4] [°C]	Stimulation Index (Lymphocyte Proliferation) (Spleen cells (CD1 mouse))	IC50 (HIV-1) [nM]	further results
SEQ ID NO 2: MBO with three 2'-5'-linkages at each end; 2'-5'-phosphodiester and 3'-5'-phosphorothioate linkages (antisense CUCTCGCACCCATCTCTCTCCUUCT; linkages [25]3 s18 [25]3 (s phosphorothioate, o phosphodiester), sugars by position and methylation of C not given here)	59.1	51.1 µg/mL	52.5	63.3	2.82 ± 0.37	99.9	concentration required to achieve IC50 relative to control SEQ ID NO 8 (HIV-1; HIV-1 replication): four fold higher concentration
SEQ ID NO 3: Phosphorothioate analog of SEQ ID NO 1 (antisense CUCTCGCACCCATCTCTCTCCUUCT; phosphorothioate, chemistry not fully specified)	95.2	58.0 µg/mL	51.9	61.1	4.9	29.8	Tm lower than duplex of control phosphorothioate oligonucleotide SEQ ID NO 8, DNA target [3]: about 4.70 °C; Tm lower than duplex of control phosphorothioate oligonucleotide SEQ ID NO 8, RNA target [4]: ~2.4 °C; Stimulation Index (Lymphocyte Proliferation) (Spleen cells (CD1 mouse); listed as 3): 4.93 ± 0.15
SEQ ID NO 4: Phosphodiester MBO with three 2'-5' linkages at each end and an additional three in the middle (antisense CUCTCGCACCCAUCTCTCTCCUUCT; phosphodiester, three 2'-5' linkages at each end and three in middle, further chemistry not given here)		> 100.0 µg/mL	52.8	64.5			stability in serum (in words) [5]: intact up to four hours; stability against snake venom phosphodiesterase (in words) [6]: slightly higher stability; effect in coagulation assay (in words) [2]: negligible effect; ΔTm with the DNA strand ([3]; destabilizing effect, DNA strand): -10.7 °C; digestion by S1 nuclease (in words) (S1 nuclease): quickly digested; ΔTm with the RNA strand ([4]; destabilizing effect, RNA strand): -6.0 °C
SEQ ID NO 5: MBO with nine 2'-5'-linkages; 2'-5'-phosphodiester and 3'-5'-phosphorothioate linkages (antisense CUCTCGCACCCAUCTCTCTCCUUCT; nine 2'-5' phosphodiester linkages, other linkages 3'-5' phosphorothioate, further chemistry not given here)		115.0 µg/mL	43.2	61.2	1.09 ± 0.05	> 800	IC50 (HIV-1; listed as 5): 812 nM
SEQ ID NO 6: Phosphorothioate analog of SEQ ID NO 4, with nine 2'-5' linkages (antisense CUCTCGCACCCAUCTCTCTCCUUCT; all linkages phosphorothioate, nine 2'-5' linkages, further chemistry not given here)	> 500.0	98.3 µg/mL	39.4	56.4	0.23		Tm lower than duplex of control phosphorothioate oligonucleotide SEQ ID NO 8, DNA target [3]: 17.2 °C; Tm lower than duplex of control phosphorothioate oligonucleotide SEQ ID NO 8, RNA target [4]: 7.1 °C; Stimulation Index (Lymphocyte Proliferation) (Spleen cells (CD1 mouse); listed as 6): 0.23 ± 0.04
SEQ ID NO 7: Control phosphodiester oligonucleotide containing all 3'-5' linkages (CTCTCGCACCCATCTCTCTCCTTCT; all phosphodiester, sugars by position and methylation of C not given here) [reference compound]	> 500.0	> 100.0 µg/mL	63.5	70.5	1.10 ± 0.13		half-life in serum [5]: < 30 min; effect in coagulation assay (in words) [2]: negligible effect; digestion by S1 nuclease (in words) (S1 nuclease): quickly digested
SEQ ID NO 8: Control phosphorothioate oligonucleotide containing all 3'-5' linkages (CTCTCGCACCCATCTCTCTCCTTCT; all phosphorothioate, sugars by position and methylation of C not given here) [reference compound]	34.2	about 23 μg/ml	56.6	63.5	6.16	24.9	effect on complement hemolytic activity (in words) [1]: inhibited serum complement hemolytic activity; 50% Prolongation of Clotting (aPTT) ([2]; listed as 8): 23.2 µg/mL; Stimulation Index (Lymphocyte Proliferation) (Spleen cells (CD1 mouse); listed as 8): 6.16 ± 0.12
